{
  "source": "paper PMC6077758",
  "about": "“Gambogic Acid and Its Analogs Inhibit Gap Junctional Intercellular Communication” (Frontiers in Pharmacology, 2018)",
  "key": {"[1]": {"test_system": "GJIC in LN215 glioma cells", "test": "I-YFP GJIC assay in LN215 cells", "assay_type": "cell-based, human", "conditions": "for Inhibition of GJIC (in words): treated 10 min before assay, LN215 glioma cells", "protocol": "The I-YFP GJIC assay was conducted as previously reported ([Lee et al., 2015], [2016]). The scheme of the assay is as follows: donor cells express SLC26A4 as an iodide transporter to allow iodide to the influx and donate iodide to acceptor cells through GJs; the acceptor cells express YFP^QL as an iodide sensor, for which the fluorescence is rapidly and sensitively quenched by iodide transferred from donor cells. A 2:1 mixture of the donor (LN215-I) and acceptor (LN215-YFP) cells were plated on 96-well plates at a density of 20,000 cells/well and grown for 24 h. After the medium was removed, the cells were treated with 100 μL of C-solution (10 mM HEPES, pH 7.4, 140 mM NaCl, 10 mM glucose, 5 mM KCl, 1 mM MgCl2, 1 mM CaCl2) containing vehicle or chemicals, as indicated. A POLARstar microplate reader (BMG Labtech, Ortenberg, Germany) equipped with an automated injector was utilized in the kinetic mode to read the YFP fluorescence of a well every 0.4 s for 10 s. An equal volume of I-solution, with the same composition as C-solution, except for the substitution of NaCl with NaI, was injected into the well 1 s after each recording was started. The % YFP quenching and % GJIC activity were calculated from a previously reported formula ([Lee et al., 2016]).\nFIGURE 2 Inhibition of GJIC by GA, D-GA, and T-GA. I-YFP GJIC assay (see Materials and Methods) was conducted using LN215-I and LN215-YFP cells. The vehicle, GA (A), D-GA (B), or T-GA (C) was diluted in C-solution and applied to cells at the concentrations indicated above for 10 min before the GJIC assay. The mean % of GJIC activity ± SD of three independent experiments is presented as bar graphs."}, "[2]": {"target": "T1, SLC26A4 (Homo sapiens, UniProt O43511)", "T1 construct": "expressed in transfected cells", "T1 sequence (O43511 1-780)": "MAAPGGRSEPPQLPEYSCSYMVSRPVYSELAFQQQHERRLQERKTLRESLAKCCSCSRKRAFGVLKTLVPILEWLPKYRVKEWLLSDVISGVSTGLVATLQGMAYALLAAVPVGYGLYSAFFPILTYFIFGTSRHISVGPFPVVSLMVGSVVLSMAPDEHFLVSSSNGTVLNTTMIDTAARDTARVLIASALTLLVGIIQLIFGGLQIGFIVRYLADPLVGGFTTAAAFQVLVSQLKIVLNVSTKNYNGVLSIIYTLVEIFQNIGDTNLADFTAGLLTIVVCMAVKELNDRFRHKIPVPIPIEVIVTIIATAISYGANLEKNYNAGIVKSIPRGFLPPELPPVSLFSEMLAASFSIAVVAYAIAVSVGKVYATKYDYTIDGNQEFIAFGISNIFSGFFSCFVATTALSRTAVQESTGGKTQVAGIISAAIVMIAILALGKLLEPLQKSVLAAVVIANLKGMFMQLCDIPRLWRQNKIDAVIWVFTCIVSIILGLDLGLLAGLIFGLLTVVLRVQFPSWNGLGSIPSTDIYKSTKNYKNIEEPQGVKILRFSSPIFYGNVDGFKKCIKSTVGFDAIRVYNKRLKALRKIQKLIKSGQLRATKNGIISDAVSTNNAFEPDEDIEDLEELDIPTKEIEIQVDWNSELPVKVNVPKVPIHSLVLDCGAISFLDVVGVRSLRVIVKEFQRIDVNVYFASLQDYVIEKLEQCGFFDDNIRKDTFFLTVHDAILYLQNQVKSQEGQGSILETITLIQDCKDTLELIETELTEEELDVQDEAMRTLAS", "test": "SLC26A4 inhibition (Supplementary Figure 4)", "assay_type": "cell-based"}, "[3]": {"target": "T2, Cx40 (Homo sapiens, UniProt P36382)", "T2 construct": "expressed in transfected cells; host or cells: GJA1-null LN215 human glioma cells, lentiviral transduction (pLVX-EIBla-Cx40)", "T2 sequence (P36382 whole entry)": "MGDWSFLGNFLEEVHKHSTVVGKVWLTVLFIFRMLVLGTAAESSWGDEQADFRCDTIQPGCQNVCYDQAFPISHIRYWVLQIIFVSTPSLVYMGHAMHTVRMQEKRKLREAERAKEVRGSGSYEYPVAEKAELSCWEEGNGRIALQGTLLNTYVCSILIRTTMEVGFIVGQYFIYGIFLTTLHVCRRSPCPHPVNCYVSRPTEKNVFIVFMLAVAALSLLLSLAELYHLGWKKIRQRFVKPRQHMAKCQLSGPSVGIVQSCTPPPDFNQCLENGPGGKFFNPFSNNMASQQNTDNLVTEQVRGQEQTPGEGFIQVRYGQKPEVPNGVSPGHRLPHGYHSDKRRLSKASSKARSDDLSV", "test": "I-YFP GJIC assay, LN215-Cx40 cells", "assay_type": "cell-based", "conditions": "10 min treatment, best fit value ± standard error; read-out: IC50 for inhibition of Cx40-GJIC", "protocol": "(§1) GJA1-null LN215 cells were plated on a 24-well plate at 30% confluency, cultivated for 24 h, and transduced with 200 μL of conditioned medium containing lentivirus mixed with an equal volume of fresh growth medium for 15 h. The growth medium was refreshed followed by incubation for a further 72 h before selection with 2 μg/mL puromycin for one week.\n(§2) The I-YFP GJIC assay was conducted as previously reported ([Lee et al., 2015], [2016]). The scheme of the assay is as follows: donor cells express SLC26A4 as an iodide transporter to allow iodide to the influx and donate iodide to acceptor cells through GJs; the acceptor cells express YFP^QL as an iodide sensor, for which the fluorescence is rapidly and sensitively quenched by iodide transferred from donor cells. […] A POLARstar microplate reader (BMG Labtech, Ortenberg, Germany) equipped with an automated injector was utilized in the kinetic mode to read the YFP fluorescence of a well every 0.4 s for 10 s. […] The % YFP quenching and % GJIC activity were calculated from a previously reported formula ([Lee et al., 2016]). […]\n(§3) FIGURE 10 IC50 values of D-GA and CBX inhibition of GJs composed of Cx43, Cx40, or Cx30. […] The percentage of GJIC inhibition was calculated and plotted against the log [compound] […] The IC50 values were calculated using GraphPad Prism 5."}, "[4]": {"test_system": "Cx43", "assay_type": "cell-based, human", "conditions": "LN215-Cx43 cells", "protocol": "To assess the cellular level and S368 phosphorylation status of Cx43 on cell surfaces and in whole lysates, LN215-Cx43 cells on 100 mm culture plates were biotinylated using EZ-Link^TM Sulfo-NHS-SS-Biotin (ThermoFisher Scientific, Cat. No. 21331) according to the manufacturer’s instructions followed by lysis with PBS containing 1% Triton X-100, 1x protease inhibitor cocktail (Roche), and 1x phosphatase inhibitor cocktail (Pierce). Protein concentration was determined using a BCA assay. To collect surface proteins, 500 μg of protein was bound to 20 μL of NeutrAvidin^TM Agarose (Pierce) followed by elution with 2x Laemmli sample buffer. The surface samples and 20 μg of whole lysates were analyzed using immunoblotting as previously described ([Lee et al., 2016]). To confirm the knockout of GJA1, whole lysates were prepared without surface biotinylation. […] The protein band densities were measured using ImageJ software.\nFIGURE 5 Effect of D-GA treatment on surface expression and S368 phosphorylation of Cx43. […] The images before cropping are also presented in Supplementary Figures 1A–E. The relative phospho-S368 Cx43 band intensity, divided by the total Cx43 band intensity, is reflective of Cx43 S368-phosphorylation and was calculated and presented as bar graphs (B). […]"}, "[5]": {"target": "T3, Cx30 (Homo sapiens, UniProt O95452)", "T3 construct": "expressed in transfected cells; host or cells: GJA1-null LN215 human glioma cells, lentiviral transduction (pLVX-CIBla-Cx30)", "T3 sequence (O95452 whole entry)": "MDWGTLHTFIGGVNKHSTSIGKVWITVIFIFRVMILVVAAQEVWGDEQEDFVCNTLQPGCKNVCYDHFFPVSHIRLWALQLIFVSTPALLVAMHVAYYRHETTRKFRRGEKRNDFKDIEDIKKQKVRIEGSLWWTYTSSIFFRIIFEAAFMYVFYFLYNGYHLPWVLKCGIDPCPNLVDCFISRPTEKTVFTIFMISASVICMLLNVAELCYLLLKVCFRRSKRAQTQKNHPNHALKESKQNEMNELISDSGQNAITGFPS", "test": "I-YFP GJIC assay, LN215-Cx30 cells", "assay_type": "cell-based", "conditions": "10 min treatment, best fit value ± standard error; read-out: IC50 for inhibition of Cx30-GJIC", "protocol": "as §1, §2, §3"}, "[6]": {"target": "T4, Cx43 (Homo sapiens, UniProt P17302)", "T4 construct": "expressed in transfected cells; host or cells: GJA1-null LN215 human glioma cells, lentiviral transduction (pLVX-CIBla-Cx43)", "T4 sequence (P17302 2-382 limits assumed)": "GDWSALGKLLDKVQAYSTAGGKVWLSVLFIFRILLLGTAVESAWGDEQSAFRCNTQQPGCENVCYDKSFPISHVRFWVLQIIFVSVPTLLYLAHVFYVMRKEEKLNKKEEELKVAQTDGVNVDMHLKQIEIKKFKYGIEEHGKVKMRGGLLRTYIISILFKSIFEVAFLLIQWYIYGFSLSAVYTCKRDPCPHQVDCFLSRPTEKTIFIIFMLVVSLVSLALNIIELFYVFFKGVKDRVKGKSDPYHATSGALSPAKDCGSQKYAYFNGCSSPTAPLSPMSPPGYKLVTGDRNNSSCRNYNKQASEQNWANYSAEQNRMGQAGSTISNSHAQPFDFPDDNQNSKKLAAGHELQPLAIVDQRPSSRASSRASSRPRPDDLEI", "test": "I-YFP GJIC assay, LN215-Cx43 cells", "assay_type": "cell-based", "conditions": "10 min treatment, best fit value ± standard error; read-out: IC50 for inhibition of Cx43-GJIC", "protocol": "as §1, §2, §3"}, "[7]": {"test_system": "LN215 cells", "test": "Measurement of DCFH oxidation (ROS)", "assay_type": "cell-based, human", "conditions": "D-GA 20 μM 10 min, H2O2 30 min", "protocol": "looseness1 LN215 cells were grown to confluency on 96-well plates, washed three times with C-solution, and treated with 100 μL C-solution containing 10 μM 2′–7′-dichlorodihydrofluorescein diacetate (DCFH-DA, Sigma-Aldrich) for 1 h; subsequently, the DCF fluorescence was measured. Chemical treatment was conducted during the DCFH-DA loading period. The DCF fluorescence value, which reflects cellular oxidative stress, was measured using a POLARstar microplate reader using excitation and emission wavelengths of 495 and 520, respectively.\nFIGURE 7 No ROS generation results from D-GA treatment in LN215 cells. LN215 cells were plated in 96-well plates and grown to full confluency. After washing with C-solution, the cells were loaded with 10 μM DCFH-DA diluted in C-solution for 1 h before fluorometry. H2O2 or D-GA was added after 30 min or 10 min before the measurement, respectively. The data are the mean ± SD (n = 3). ^∗p < 0.05 (Student’s t-test)."}},
  "note": "“And” between values parts separate entries of the source, which are not always exact repeats. Equal entries are not always repeated.",
  "data": [
    {"compound": "CC(C)=CCCC1(C)C=Cc2c(O)c3c(c(CC=C(C)C)c2O1)OC12C(CC4CC1C(C)(C)OC2(CC=C(C)C(=O)O)C4O)C3=O", "note": "(stereo not drawn) [T-GA, tetrahydrogambogic acid]", "values": [
      {"measurement": "Inhibition of GJIC (in words)", "setting": "[1]", "result": "inhibited by these compounds in a dose-dependent manner"}
    ]},
    {"compound": "CC(C)=CCC[C@]1(C)C=Cc2c(O)c3c(c(CC=C(C)C)c2O1)O[C@]12C(=C[C@@H]4C[C@H]1C(C)(C)O[C@@]2(C/C=C(/C)C(=O)O)C4=O)C3=O", "note": "[GA, Gambogic acid]", "values": [
      {"measurement": "Inhibition of SLC26A4", "setting": "[2]", "result": "did not inhibit SLC26A4"},
      {"measurement": "Inhibition of GJIC (in words)", "setting": "[1]", "result": "inhibited by these compounds in a dose-dependent manner"}
    ]},
    {"compound": "CC(C)=CCCC1(C)C=Cc2c(O)c3c(c(CC=C(C)C)c2O1)OC12C(=CC4CC1C(C)(C)OC2(C/C=C(/C)C(=O)O)C4O)C3=O", "note": "[D-GA, dihydrogambogic acid]", "values": [
      {"measurement": "IC50", "setting": "[3]", "result": 5.1, "unit": "µM"},
      {"measurement": "S368 phosphorylation of surface Cx43 vs vehicle", "setting": "[4]; 10 min, 20 μM D-GA or 100 ng/mL PMA + 50 ng/mL EGF", "result": "did not increase S368 phosphorylation"},
      {"measurement": "Cx43 level on cell surfaces", "setting": "[4]; 20 μM D-GA 10 min or 1 μg/mL BFA + 10 μg/mL CHX 6 h", "result": "increased threefold"},
      {"measurement": "% GJIC activity", "setting": "[1]; 20 μM for 10 min, LN215-I and LN215-YFP cells, mean ± SD", "result": "18.1% ± 15.7% and 17.6% ± 7.3%"},
      {"measurement": "% GJIC activity after washing", "setting": "[1]; 20 μM for 10 min, washed, further 20 min incubation in absence of compound", "result": "91.4% ± 2.5%"},
      {"measurement": "Inhibition of GJIC (in words)", "setting": "[1]", "result": "inhibited by these compounds in a dose-dependent manner"},
      {"measurement": "IC50", "setting": "[5]", "result": "81.1 ± 1.1", "unit": "µM"},
      {"measurement": "IC50", "setting": "[6]", "result": "13.1 ± 1.1", "unit": "µM"},
      {"measurement": "DCF fluorescence (cellular ROS production)", "setting": "[7]", "result": "did not increase DCF fluorescence"}
    ]},
    {"compound": "CC(=O)OCOC(=O)CN(CC(=O)OCOC(C)=O)c1ccccc1OCCOc1ccccc1N(CC(=O)OCOC(C)=O)CC(=O)OCOC(C)=O", "note": "[BAPTA-AM, reference compound]", "values": [
      {"measurement": "Effect of pre-treatment on GJIC activity", "setting": "[1]; 5 μM BAPTA-AM 30 min, control or 20 μM D-GA-treated LN215 cells", "result": "did not change the GJIC activity"}
    ]},
    {"compound": "OO", "note": "[H2O2, reference compound]", "values": [
      {"measurement": "DCF fluorescence (cellular ROS production)", "setting": "[7]", "result": "dose-dependent increase"}
    ]},
    {"compound": "CC1(C)[C@@H](OC(=O)CCC(=O)O)CC[C@]2(C)[C@H]3C(=O)C=C4[C@@H]5C[C@@](C)(C(=O)O)CC[C@]5(C)CC[C@@]4(C)[C@]3(C)CC[C@@H]12", "note": "[CBX, carbenoxolone, reference compound]", "values": [
      {"measurement": "IC50", "setting": "[3]", "result": 105, "unit": "µM"},
      {"measurement": "IC50", "setting": "[5]", "result": "748.2 ± 1.3", "unit": "µM"},
      {"measurement": "IC50", "setting": "[6]", "result": "5.6 ± 1.1", "unit": "µM"}
    ]},
    {"compound": "Cc1[nH]nc(-c2cc(S(=O)(=O)NC3CCCc4ccccc43)c(C)s2)c1C", "note": "(stereo not drawn) [PDSinh-C01, reference compound]", "values": [
      {"measurement": "Inhibition of SLC26A4", "setting": "[2]", "result": "potently inhibited"}
    ]}
  ]
}
